Ten compounds from US10029986B2, “Alkynyl pyridine-substituted amide compound and pesticide” (NISSAN CHEMICAL INDUSTRIES, LTD., priority 2014, dated 2018) can be followed below.

Data set [1] deals with Erysiphe polygoni (synonym: Erysiphe betae). The experiment in a line: Test on the preventive effect against cucumber powdery mildew. It is filed as in vivo. The conditions noted are these: 216 h, 5 ml per pot sprayed, cucumber cotyledon stage, 9 days after inoculation; for pest or weed control at 500 µg/mL: test solution A 500 ppm. On the procedure:
Compounds of the present invention were dissolved in a solvent for emulsion (a mixture of Sorpol (registered trademark) 3005XL (manufactured by Toho Chemical Industry Co., Ltd.): N-methylpyrrolidone: Solvesso (registered trademark) 200 (manufactured by ExxonMobil Chemical) in a ratio of 1:5:2) to prepare 20 wt % emulsifiable concentrates. Then, distilled water was added to dilute the emulsifiable concentrates to the prescribed concentration (500 ppm), and the obtained solutions were used in the following the Test Examples 1 to 8. Cucumber (varieties: Sagami Hanjiro) was seeded in 90 cm^3 plastic pot, and at the cotyledon stage, 5 ml per pot of test solution A of the compounds of the present invention was sprayed. After drying in air, the pot was placed in an air-conditioned greenhouse (20° C.), and a suspension of conidium of Erysiphe polygoni (synonym: Erysiphe betae) was sprayed. After the pot were replaced at the same temperature for 9 days, the proportion of the formed lesion in the inoculated leaves were counted to calculate the control value in accordance with the following formula. The test was carried out in duplicate. Control value=[1−(lesion area ratio in treated plot/lesion are a ratio in non-treated plot)]×100

Data set [2] deals with Botrytis cinerea. As to the kind of experiment: Test on the preventive effect against cucumber gray mold (spore inoculation). The conditions noted are these: 72 h, 5 ml per pot, cucumber cut leaves, conidium inoculation, 3 days at 20° C.; for pest or weed control at 500 µg/mL: test solution A 500 ppm. Type of data set: in vivo. On the procedure: Compounds of the present invention were dissolved in a solvent for emulsion (a mixture of Sorpol (registered trademark) 3005XL (manufactured by Toho Chemical Industry Co., Ltd.): N-methylpyrrolidone: Solvesso (registered trademark) 200 (manufactured by ExxonMobil Chemical) in a ratio of 1:5:2) to prepare 20 wt % emulsifiable concentrates. Then, distilled water was added to dilute the emulsifiable concentrates to the prescribed concentration (500 ppm), and the obtained solutions were used in the following the Test Examples 1 to 8. Cucumber (varieties: Sagami Hanjiro) was seeded in 90 cm^3 plastic pot, and at the cotyledon stage, 5 ml per pot of test solution A of the compounds of the present invention was applied. After drying in air, the treated leaves were cut and transferred in plastic containers. 30 μl of a mixture of a suspension of conidium of Botrytis cinerea and a dissolved PDA medium in a ratio of 1:1 was dropped on each treated leaf and inoculated. After the inoculation, the plastic containers were placed in 20° C. with humid conditions for 3 days, and the proportion of the formed lesion in the inoculated leaves were counted to calculate the control value in accordance with the same formula as in the Test Example 1. The test was carried out in duplicate.

In data set [3] the test system is Sclerotinia sclerotiorum. As to the kind of experiment: Test on the preventive effect against cucumber stem rot. Type of data set: in vivo. The settings on record: 48 h, 5 ml per pot, agar block inoculation, 2 days at 20° C.; for pest or weed control at 500 µg/mL: test solution A 500 ppm. How it is done:
(§1) Compounds of the present invention were dissolved in a solvent for emulsion (a mixture of Sorpol (registered trademark) 3005XL (manufactured by Toho Chemical Industry Co., Ltd.): N-methylpyrrolidone: Solvesso (registered trademark) 200 (manufactured by ExxonMobil Chemical) in a ratio of 1:5:2) to prepare 20 wt % emulsifiable concentrates. Then, distilled water was added to dilute the emulsifiable concentrates to the prescribed concentration (500 ppm), and the obtained solutions were used in the following the Test Examples 1 to 8. Cucumber (varieties: Sagami Hanjiro) was seeded in 90 cm^3 plastic pot, and at the cotyledon stage, 5 ml per pot of test solution A of the compounds of the present invention was applied. After drying in air, the pot was transferred in a plastic container, and an agar blocks (diameter: 5 mm) containing Sclerotinia sclerotiorum which was preliminarily cultivated in a PDA medium was inoculated to the seed leaves of the cucumber treated with the solution. After the inoculation, the plastic container was covered with a plastic sheet, and placed at 20° C. and humidified for 2 days, thus the proportion of the formed lesion in the inoculated leaves were measured to calculate the control value in accordance with the same formula as in the Test Example 1. The test was carried out in duplicate.

Data set [4] has as its system Phaeosphaeria nodorum (Synonym: Septoria nodorum). As to the kind of experiment: Test on the preventive effect against wheat glume blotch. It is filed as in vivo. The settings on record: Parastagonospora nodorum, 144 h, 5 ml per pot, wheat 1.3-leaf stage, 2 days inoculation chamber then 6 days at 20° C.; for pest or weed control at 500 µg/mL: test solution A 500 ppm. How it is done:
Compounds of the present invention were dissolved in a solvent for emulsion (a mixture of Sorpol (registered trademark) 3005XL (manufactured by Toho Chemical Industry Co., Ltd.): N-methylpyrrolidone: Solvesso (registered trademark) 200 (manufactured by ExxonMobil Chemical) in a ratio of 1:5:2) to prepare 20 wt % emulsifiable concentrates. Then, distilled water was added to dilute the emulsifiable concentrates to the prescribed concentration (500 ppm), and the obtained solutions were used in the following the Test Examples 1 to 8. Wheat (varieties: Haruyutaka) was seeded in 90 cm^3 plastic pot, and at 1.3-leaf stage, 5 ml per pot of test solution A of the compounds of the present invention was applied. One day after treatment, a suspension of conidium of Phaeosphaeria nodorum (Synonym: Septoria nodorum) was sprayed to the wheat, and the pot was left in the inoculation chamber at 20° C. under humidity of 100% RH for 2 days. Then, the pot was placed in an air-conditioned greenhouse (20° C.) for 6 days. The proportion of the formed lesion in the inoculated leaves were measured to calculate the control value in accordance with the same formula as in the Test Example 1. The test was carried out in duplicate.

The test system of data set [5] is Botrytis cinerea. The experiment in a line: Test on the preventive effect against cucumber gray mold (mycelium inoculation). Type of data set: in vivo. The settings on record: 48 h, 5 ml per pot, cucumber cotyledon, agar block inoculation, 2 days at 20° C.; for pest or weed control at 500 µg/mL: test solution A 500 ppm. On the procedure: as §1, with “applied. On the next day,” for “applied. After drying in air,”, “containing Botrytis cinerea” for “containing Sclerotinia sclerotiorum”, “inoculated on” for “inoculated to”, “the cotyledon” for “the seed leaves”, “sheet, then” for “sheet, and”, “2 days. Thus” for “2 days, thus”

Data set [6] relates to Blumeria graminis f. sp. tritici. As to the kind of experiment: Test on the preventive effect against wheat powdery mildew. The conditions noted are these: 168 h, 5 ml per pot, wheat 1.3-leaf stage, 7 days after inoculation; for pest or weed control at 500 µg/mL: test solution A 500 ppm. It is filed as in vivo. On the procedure:
Compounds of the present invention were dissolved in a solvent for emulsion (a mixture of Sorpol (registered trademark) 3005XL (manufactured by Toho Chemical Industry Co., Ltd.): N-methylpyrrolidone: Solvesso (registered trademark) 200 (manufactured by ExxonMobil Chemical) in a ratio of 1:5:2) to prepare 20 wt % emulsifiable concentrates. Then, distilled water was added to dilute the emulsifiable concentrates to the prescribed concentration (500 ppm), and the obtained solutions were used in the following the Test Examples 1 to 8. Wheat (varieties: Norin 61) was seeded in 90 cm^3 plastic pot, and at the 1.3-leaf stage, 5 ml per pot of test solution A of the compounds of the present invention were applied. One day after treatment, the pot was placed in an air-conditioned greenhouse (20° C.), and conidium of Blumeria graminis f. sp. tritici was inoculated to the wheat. 7 days after, the proportion of the formed lesion in the inoculated leaves were measured to calculate the control value in accordance with the same formula as in the Test Example 1. The test was carried out in duplicate.

Data set [7] concerns Southern root-knot nematode (Meloidogyne incoqnita). The experiment in a line: Insecticidal test against Southern root-knot nematode (eggs, 96 well plate). It is filed as in vivo. The conditions noted are these: 96 h, test solution B 100 ppm, 10 μl per well, 25° C. dark, 4 days after treatment, read-out: efficacy (unhatched eggs + inactive larvae relative to non-treated). How it is done:
(§2) Compounds of the present invention were dissolved in dimethyl sulfoxide to prepare 1 wt % solutions. Then, distilled water was added to dilute the solutions to the prescribed concentration (100 ppm), and the obtained solutions were used in the following the Test Examples 9 to 12. 60 μl of a potato dextrose 1% agar medium was added to each well of a 96 well plate, and 30 μl of sterilized water containing eggs of Southern root-knot nematode (Meloidogyne incoqnita) (10 eggs/3 μl) was added to each well. Further, 10 μl per well of test solution B of the compounds of the present invention was added, and the plate was left at rest at 25° C. under dark conditions.

The test system of data set [8] is Barber pole worm (Haemonchus contortus). The experiment in a line: Insecticidal test against Barber pole worm (eggs, 96 well plate). It is filed as in vivo. The conditions noted are these: 96 h, test solution B 100 ppm, 10 μl per well, 25° C. dark, 4 days after treatment, read-out: efficacy (unhatched eggs and inactive larvae relative to non-treated). On the procedure:
as §2, with “Barber pole worm (Haemonchus contortus)” for “Southern root-knot nematode (Meloidogyne incoqnita)”

In turn, `Cn1cc(C(=O)NCC(F)(F)c2ncc(C#CCF)cc2Cl)c(C(F)F)n1` [8-005, N-[2-[3-chloro-5-(3-fluoro-1-propynyl)pyridin-2-yl]-2,2-difluoroethyl]-3-difluoromethyl-1-methyl-1H-pyrazole-4-carboxamide] yielded a melting point of 110 to 111 °C.

For the compound `O=C(NCC(F)(F)c1ncc(C#CC2CC2)cc1Cl)c1ncccc1C(F)(F)F` [2-001], the melting point was 157 to 158 °C.

As for `CC(NC(=O)c1ccccc1C(F)(F)F)C(OCC(F)(F)F)c1ncc(C#CC2CC2)cc1Cl` (centres unmarked) [1-027], the pest or weed control at 500 µg/mL in data set [1], in data set [2], in data set [3], in [4], in data set [5] and in data set [6] was at least 70% throughout.

In the case of `Cn1cc(C(=O)NCC(C#N)c2ncc(C#CC3CC3)cc2Cl)c(C(F)F)n1` (centres unmarked) [8-021, N-[2-[3-chchloro-5-(cyclopropylethynyl)pyridin-2-yl]-2-cyanoethyl]-3-difluoromethyl-1-methyl-1H-pyrazole-4-carboxamide], the melting point was in the range of 43 to 46 °C.

Take `O=C(NCC(CC(F)(F)F)c1ncc(C#CC2CC2)cc1Cl)c1ccccc1C(F)(F)F` (centres unmarked) [1-010]: the pest or weed control at 500 µg/mL in [1], in data set [2], in data set [3] and in [4] was at least 70% each time. The pest or weed control at 100 µg/mL in data set [7] and in [8] was at least 50% throughout.

`CC(NC(=O)c1ccccc1C(F)(F)F)C(SCC(F)(F)F)c1ncc(C#CC2CC2)cc1Cl` (centres unmarked) [1-032]: the pest or weed control at 500 µg/mL in data set [1] and in data set [4] was at least 70% throughout.

With `CCOC(c1ncc(C#CC2CC2)cc1Cl)C(C)NC(=O)c1cccnc1C(F)F` (centres unmarked) [3-022], the pest or weed control at 100 ppm in data set [1] (100 ppm solution (symbol *)), in data set [2] (100 ppm solution (symbol *)), in [3] (100 ppm solution (symbol *)), in data set [4] (100 ppm solution (symbol *)), in [5] (100 ppm solution (symbol *)) and in data set [6] (100 ppm solution (symbol *)) was at least 70% in each case.

Consider `CC(NC(=O)c1cccnc1Cl)C(SCC(F)(F)F)c1ncc(C#CC2CC2)cc1Cl` (centres unmarked) [3-032], for which the pest or weed control at 500 µg/mL in [1], in [2], in data set [3] and in data set [4] was at least 70% each time.

With `CC(NC(=O)c1cccnc1C(F)(F)F)C(SCC(F)(F)F)c1ncc(C#CC2CC2)cc1Cl` (centres unmarked) [3-034], the pest or weed control at 500 µg/mL in [1], in [2], in data set [3], in data set [4] and in data set [5] was at least 70% each time.

For the compound `CCOC(c1ncc(C#CC2CC2)cc1Cl)C(C)NC(=O)c1ccccc1C(F)(F)F` (centres unmarked) [1-026], the pest or weed control at 500 µg/mL in data set [1], in data set [2], in data set [3], in data set [4], in [5] and in [6] was at least 70% throughout.
